Several values for one entry are separate records, joined by “and”; a condition that tells them apart may be missing. Equal entries are not always repeated.
Key:
Type in all cases: in vivo, Brassica napus
[1] = system: Brassica plants comprising mutant AHAS alleles; assay: Greenhouse pre-planting application (20 g a.i./ha): vigor scores; conditions: for vigor score Av, pre-planting (2, 3 and 4 weeks after treatment): 20 g a.i./ha
Procedure: In another experiment, the effect of combining AHAS full knockouts with AHAS missense herbicide tolerant alleles on tolerance to thiencarbazone-methyl pre-planting application and thiencarbazone-methyl post-emergence spraying was tested in the greenhouse. To this end, the Brassica plants identified in Example 1 and 2 were backcrossed two times with an elite parent line, and subsequently selfed twice to obtain homozygous plants (BC2S2). Treatment pre-planting was carried out on the soil just after sowing with a dose of 20 g a.i./ha of thiencarbazone methyl. For assessment of vigor scores, plants were evaluated on a scale of 1 to 9, where 1=dead, 3=poor, 6=some aberrant phenotype and 9=vigorous. The vigor scores are an average of the scores taken at 2, 3 and 4 weeks after treatment. Treatment post-emergence at the first leaf stage was carried out with a dose of 10 g a.i./ha of thiencarbazone-methyl. The vigor scores are an average of the scores taken 1, 2 and 3 weeks after the treatment. The average values (Av) and standard deviations (SD) of the vigor scores are represented in Table 6.

[2] = system: Brassica plants comprising mutant AHAS alleles; assay: Field trial, post-emergence treatment (0, 10, 20 g a.i./ha), location A: PPTOX and VIG1 scores; conditions: for vigor1 (VIG1) score, Av: 7 days after spray
Procedure: The correlation between the presence of full knockout and missense AHAS genes in Brassica plants on plant growth and herbicide tolerance of the Brassica plants in the field on location A was also tested upon post-emergence herbicide treatment. The field setup was the same as for the pre-planting field trial. Post-emergence treatment was carried out on the 2-4 leaf stage with a rate of 0 (treatment A), 10 (treatment B), 20 (treatment C) g a.i./ha of thiencarbazone methyl. The phytotoxicity (PPTOX) and vigor1 (VIG1; vigor scores 7 days after herbicide spray) were determined as described above. The average values (Av) and standard deviations (SD) of the scores for the different parameters are represented in Table 9.

[3] = system: Brassica plants comprising mutant AHAS alleles; assay: Greenhouse post-emergence spray test (5 g a.i./ha): survival and plant type rating; parameters: key to number of surviving plants in plant type 4 / number of surviving plants in plant type 5 / number of surviving plants in plant type 2: 5: normal (corresponding to wildtype unsprayed phenotype); 4: normal height, some side branching, normal leaves; 3: intermediate height, intermediate side branching, normal leaves; 2: short, severe side branching (“bushy”), some leave malformations; 1: short, severe side branching (“bushy”), severe leave malformations; conditions: 5 g a.i./ha post-emergence
Procedure: The correlation between the presence of missense and/or full knockout AHAS alleles in a Brassica plant grown in the greenhouse and tolerance to thiencarbazone-methyl was determined as follows. Of the Brassica plants identified in Example 1 and 2, crosses were made to obtain plants comprising both mutant AHAS1 and AHAS3 alleles (F1), which were subsequently backcrossed and selfed (BC1S1). Single gene AHAS missense mutants were backcrossed twice (BC2). These BC1S1 (representing all possible genotype combinations), as well as BC2 single AHAS gene mutant plants (50%+/+, 50%+/−), were sown in a greenhouse. Treatment post-emergence at the 1-2 leaf stage was carried out with a dose of 5 g a.i./ha of thiencarbazone-methyl and surviving plants were transplanted to 9 cm pots 10 days after spraying. The plants were evaluated for phenotype (height, side branching and leave morphology) 20 days after transplantation on scale of 5 to 1, where; type 5=normal (corresponding to wildtype unsprayed phenotype); type 4=normal height, some side branching, normal leaves; type 3=intermediate height, intermediate side branching, normal leaves; type 2=short, severe side branching (“bushy”), some leave malformations; type 1=short, severe side branching (“bushy”), severe leave malformations (Table 4).

[4] = Elite parent line plants, 10 g a.i./ha (treatment B) post-emergence
[5] = Elite parent line plants, 20 g a.i./ha (treatment C) post-emergence
[6] = plants AHAS1 HETO108 / AHAS3 HETO104, 10 g a.i./ha (treatment B) post-emergence
[7] = plants AHAS1 HETO108 / AHAS3 HETO104, 20 g a.i./ha (treatment C) post-emergence
[8] = plants AHAS1 HETO108 / AHAS3 HETO111, 10 g a.i./ha (treatment B) post-emergence
[9] = plants AHAS1 HETO108 / AHAS3 HETO111, 20 g a.i./ha (treatment C) post-emergence
[10] = plants AHAS1 HETO108 / AHAS3 WT, 10 g a.i./ha (treatment B) post-emergence
[11] = plants AHAS1 HETO108 / AHAS3 WT, 20 g a.i./ha (treatment C) post-emergence
[12] = plants AHAS1 HETO112 / AHAS3 HETO111, 10 g a.i./ha (treatment B) post-emergence
[13] = plants AHAS1 HETO112 / AHAS3 HETO111, 20 g a.i./ha (treatment C) post-emergence
[14] = plants AHAS1 HETO112 / AHAS3 WT, 10 g a.i./ha (treatment B) post-emergence
[15] = plants AHAS1 HETO112 / AHAS3 WT, 20 g a.i./ha (treatment C) post-emergence
[16] = plants AHAS1 WT / AHAS3 HETO104, 10 g a.i./ha (treatment B) post-emergence
[17] = plants AHAS1 WT / AHAS3 HETO104, 20 g a.i./ha (treatment C) post-emergence
[18] = plants AHAS1 WT / AHAS3 HETO111, 10 g a.i./ha (treatment B) post-emergence
[19] = plants AHAS1 WT / AHAS3 HETO111, 20 g a.i./ha (treatment C) post-emergence
[20] = plants AHAS1 WT / AHAS3 WT, 10 g a.i./ha (treatment B) post-emergence
[21] = plants AHAS1 WT / AHAS3 WT, 20 g a.i./ha (treatment C) post-emergence
[22] = BC1S1 HETO108/HETO102, 204 sown, 201 germinated
[23] = BC1S1 HETO108/HETO103, 204 sown, 199 germinated
[24] = BC1S1 HETO108/HETO104, 204 sown, 200 germinated
[25] = BC1S1 HETO112/HETO111, 204 sown, 204 germinated
[26] = BC2 HETO108, 51 sown, 50 germinated
[27] = BC2 HETO111, 51 sown, 49 germinated

SMILES: COC(=O)c1csc(C)c1S(=O)(=O)NC(=O)n1nc(OC)n(C)c1=O [thiencarbazone-methyl, methyl 4-[(4,5-dihydro-3-methoxy-4-methyl-5-oxo-1H-1,2,4-triazol-1-yl)carbonylsulfamoyl]-5-methylthiophene-3-carboxylate]
- vigor score Av, pre-planting (2, 3 and 4 weeks after treatment) ([1]; AHAS1 +/+, AHAS3 +/+ (HETO108+HETO104 series)): 1.3
- vigor score Av, pre-planting (2, 3 and 4 weeks after treatment) ([1]; AHAS1 +/+, AHAS3 +/+ (HETO108+HETO111 series)): 1.4
- vigor score Av, pre-planting (2, 3 and 4 weeks after treatment) ([1]; AHAS1 +/+, AHAS3 +/+ (HETO112+HETO111 series)): 1.4
- vigor score Av, pre-planting (2, 3 and 4 weeks after treatment) ([1]; AHAS1 +/+, AHAS3 HETO104/HETO104): 1.3
- vigor score Av, pre-planting (2, 3 and 4 weeks after treatment) ([1]; AHAS1 +/+, AHAS3 HETO111/HETO111 (HETO108+HETO111 series)): 5.2
- vigor score Av, pre-planting (2, 3 and 4 weeks after treatment) ([1]; AHAS1 +/+, AHAS3 HETO111/HETO111 (HETO112+HETO111 series)): 4.8
- vigor score Av, pre-planting (2, 3 and 4 weeks after treatment) ([1]; AHAS1 HETO108/HETO108, AHAS3 +/+ (HETO108+HETO104 series)): 5.3
- vigor score Av, pre-planting (2, 3 and 4 weeks after treatment) ([1]; AHAS1 HETO108/HETO108, AHAS3 +/+ (HETO108+HETO111 series)): 4.4
- vigor score Av, pre-planting (2, 3 and 4 weeks after treatment) ([1]; AHAS1 HETO108/HETO108, AHAS3 HETO104/HETO104): 6.1
- vigor score Av, pre-planting (2, 3 and 4 weeks after treatment) ([1]; AHAS1 HETO108/HETO108, AHAS3 HETO111/HETO111): 7.6
- vigor score Av, pre-planting (2, 3 and 4 weeks after treatment) ([1]; AHAS1 HETO112/HETO112, AHAS3 +/+): 1.4
- vigor score Av, pre-planting (2, 3 and 4 weeks after treatment) ([1]; AHAS1 HETO112/HETO112, AHAS3 HETO111/HETO111): 5.6
- vigor score Av, pre-planting (2, 3 and 4 weeks after treatment) ([1]; Elite parent line treated): 1.8
- thiencarbazone-methyl tolerance of plants homozygous for a missense allele and a full knock-out allele, versus missense allele with other AHAS gene homozygous wild-type ([1]; pre-planting treatment, greenhouse): higher
- phytotoxicity (PPTOX) score, Av [2, 4]: 1.00
- vigor1 (VIG1) score, Av [2, 4]: 2.33
- phytotoxicity (PPTOX) score, Av [2, 5]: 1.00
- vigor1 (VIG1) score, Av [2, 5]: 2.33
- phytotoxicity (PPTOX) score, Av [2, 6]: 5.00
- vigor1 (VIG1) score, Av [2, 6]: 5.00
- phytotoxicity (PPTOX) score, Av [2, 7]: 4.00
- vigor1 (VIG1) score, Av [2, 7]: 4.00
- phytotoxicity (PPTOX) score, Av [2, 8]: 6.67
- vigor1 (VIG1) score, Av [2, 8]: 6.67
- phytotoxicity (PPTOX) score, Av [2, 9]: 6.00
- vigor1 (VIG1) score, Av [2, 9]: 6.00
- phytotoxicity (PPTOX) score, Av [2, 10]: 6.00 and 5.67
- vigor1 (VIG1) score, Av [2, 10]: 6.00 and 5.67
- phytotoxicity (PPTOX) score, Av [2, 11]: 4.33
- vigor1 (VIG1) score, Av [2, 11]: 4.67 and 4.33
- phytotoxicity (PPTOX) score, Av [2, 12]: 5.00
- vigor1 (VIG1) score, Av [2, 12]: 5.00
- phytotoxicity (PPTOX) score, Av [2, 13]: 4.67
- vigor1 (VIG1) score, Av [2, 13]: 4.67
- phytotoxicity (PPTOX) score, Av [2, 14]: 1.00
- vigor1 (VIG1) score, Av [2, 14]: 2.00
- phytotoxicity (PPTOX) score, Av [2, 15]: 1.00
- vigor1 (VIG1) score, Av [2, 15]: 1.67
- phytotoxicity (PPTOX) score, Av [2, 16]: 1.00
- vigor1 (VIG1) score, Av [2, 16]: 1.67
- phytotoxicity (PPTOX) score, Av [2, 17]: 1.00
- vigor1 (VIG1) score, Av [2, 17]: 1.67
- phytotoxicity (PPTOX) score, Av [2, 18]: 5.33 and 5.67
- vigor1 (VIG1) score, Av [2, 18]: 5.33
- phytotoxicity (PPTOX) score, Av [2, 19]: 4.67
- vigor1 (VIG1) score, Av [2, 19]: 4.67
- phytotoxicity (PPTOX) score, Av [2, 20]: 1.00
- vigor1 (VIG1) score, Av [2, 20]: 1.67
- phytotoxicity (PPTOX) score, Av [2, 21]: 1.00
- vigor1 (VIG1) score, Av [2, 21]: 2.00
- number of surviving plants in plant type 1 [3, 22]: 108
- number of surviving plants in plant type 2 [3, 22]: 34
- number of surviving plants in plant type 3 [3, 22]: 21
- number of surviving plants in plant type 4 [3, 22]: 1
- number of surviving plants in plant type 5 [3, 22]: 0
- number of surviving plants transplanted after spraying (trans) [3, 22]: 169
- number of surviving plants in plant type 1 [3, 23]: 88
- number of surviving plants in plant type 2 [3, 23]: 18
- number of surviving plants in plant type 3 [3, 23]: 41
- number of surviving plants in plant type 4 [3, 23]: 4
- number of surviving plants in plant type 5 [3, 23]: 0
- number of surviving plants transplanted after spraying (trans) [3, 23]: 151
- number of surviving plants in plant type 1 [3, 24]: 66
- number of surviving plants in plant type 2 [3, 24]: 18
- number of surviving plants in plant type 3 [3, 24]: 28
- number of surviving plants in plant type 4 [3, 24]: 2
- number of surviving plants transplanted after spraying (trans) [3, 24]: 115
- number of surviving plants in plant type 5 ([3]; BC1S1 HETO108/HETO104, 204 sown, 200 germinated (probably missed during spraying)): 1
- number of surviving plants in plant type 1 [3, 25]: 94
- number of surviving plants in plant type 2 [3, 25]: 23
- number of surviving plants in plant type 3 [3, 25]: 35
- number of surviving plants in plant type 4 [3, 25]: 0
- number of surviving plants in plant type 5 [3, 25]: 0
- number of surviving plants transplanted after spraying (trans) [3, 25]: 152
- number of surviving plants in plant type 1 [3, 26]: 20
- number of surviving plants in plant type 2 [3, 26]: 2
- number of surviving plants in plant type 3 [3, 26]: 0
- number of surviving plants in plant type 4 [3, 26]: 0
- number of surviving plants in plant type 5 [3, 26]: 0
- number of surviving plants transplanted after spraying (trans) [3, 26]: 22
- number of surviving plants in plant type 1 [3, 27]: 22
- number of surviving plants in plant type 2 [3, 27]: 0
- number of surviving plants in plant type 3 [3, 27]: 0
- number of surviving plants in plant type 4 [3, 27]: 0
- number of surviving plants in plant type 5 [3, 27]: 0
- number of surviving plants transplanted after spraying (trans) [3, 27]: 25
- number of surviving plants in plant type 1 ([3]; wt, 51 sown, 51 germinated): 0
- number of surviving plants in plant type 2 ([3]; wt, 51 sown, 51 germinated): 0
- number of surviving plants in plant type 3 ([3]; wt, 51 sown, 51 germinated): 0
- number of surviving plants in plant type 4 ([3]; wt, 51 sown, 51 germinated): 0
- number of surviving plants in plant type 5 ([3]; wt, 51 sown, 51 germinated): 0
- number of surviving plants transplanted after spraying (trans) ([3]; wt, 51 sown, 51 germinated): 0

Source: US20120255051A1, “HERBICIDE TOLERANT PLANTS” (priority 2009, published 2012)
